From patent US8318793B2, “Heterocyclic compounds and their use as glycogen synthase kinase-3 inhibitors” (Abbott GmbH & Co. KG, priority 2009, dated 2012)

Biological target: T1, human Glycogen Synthase Kinase-3 beta (hGSK-3β) (Homo sapiens, UniProt P49841)
T1 construct: purchased Upstate cell signaling solutions
Assay: Biochemical hGSK-3beta assay (33P-ATP phosphorylation of biotinylated peptide substrate)
Conditions: 10 μM ATP, 30 minutes at room temperature; read-out: GSK-3β IC50
Description: Methods—Biochemical hGSK-3beta Assay
Compounds were tested for their ability to inhibit human Glycogen Synthase Kinase-3 beta (hGSK-3β) to phosphorylate biotin-[…](pS)EDEEE. Compounds were incubated with 0.5 μCi 33P-ATP, 10 μM ATP, 0.0125U hGSK-3β (Upstate cell signaling solutions) and 1 μM substrate (biotin-[…](pS)EDEEE) in 50 mM HEPES, 10 mM MgCl2, […], 1 mM DTT, 0.0075% Triton, 2% DMSO (total volume 50 μL) for 30 minutes at room temperature. The incubation was stopped by addition of an equal volume of 100 mM EDTA, 4M NaCl. 80 μL of this mixture was added to streptavidin-coated Flashplates (PerkinElmer). Following a wash step, 33P incorporation was quantified on a MicroBeta microplate liquid scintillation counter (PerkinElmer). IC50's were determined by fitting a sigmoidal dose-response curve to the counts obtained at the different concentrations in GraphPad Prism.

T1 sequence (P49841 whole entry): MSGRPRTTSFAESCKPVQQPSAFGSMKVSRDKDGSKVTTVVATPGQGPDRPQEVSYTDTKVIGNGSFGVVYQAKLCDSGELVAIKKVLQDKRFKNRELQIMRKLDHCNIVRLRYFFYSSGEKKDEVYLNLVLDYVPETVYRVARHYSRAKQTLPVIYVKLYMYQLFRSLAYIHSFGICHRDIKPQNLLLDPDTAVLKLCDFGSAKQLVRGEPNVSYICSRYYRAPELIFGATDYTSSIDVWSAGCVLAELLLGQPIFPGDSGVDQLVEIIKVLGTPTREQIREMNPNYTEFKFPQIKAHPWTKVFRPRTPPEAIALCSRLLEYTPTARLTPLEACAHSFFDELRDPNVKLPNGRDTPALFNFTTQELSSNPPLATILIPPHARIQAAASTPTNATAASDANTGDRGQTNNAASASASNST

| SMILES | IC50 |
| --- | --- |
| N#Cc1ccc2[nH]c(O)c(-c3ccc(CN4CC[C@H]5CNC[C@H]54)cn3)c2c1 (stereo in doubt) [Example 5, 3-(5-(((3aS,6aS)-Hexahydropyrrolo[3,4-b]pyrrol-1(2H)-yl)methyl)-pyridin-2-yl)-2-hydroxy-1H-indole-5-carbonitrile] | < 0.1 µM |
| N#Cc1ccc2[nH]c(O)c(-c3ccc(CN4CC5COCC5C4)cn3)c2c1 (stereo not drawn) [Example 1, 3-(5-((Dihydro-1H-furo[3,4-c]pyrrol-5(3H,6H,6aH)-yl)methyl)pyridin-2-yl)-2-hydroxy-1H-indole-5-carbonitrile] | < 0.1 µM |
| Oc1[nH]c2ncccc2c1-c1ccc(CN2CCOCC2)cn1 [Example 2, 3-(5-(Morpholinomethyl)-pyridin-2-yl)-1H-pyrrolo[2,3-b]pyridin-2-ol] | 10 to 100 µM |

Results, then the compound that gave them:

| IC50 | SMILES |
| --- | --- |
| 0.1 to 10 µM | Oc1[nH]c2cnccc2c1-c1ccc(CN2CCOCC2)cn1 [Example 3, 3-(5-(Morpholinomethyl)-pyridin-2-yl)-1H-pyrrolo[2,3-c]pyridin-2-ol] |
| < 0.1 µM | Oc1[nH]c2ccc(Br)nc2c1-c1ccc(CN2CCOCC2)cn1 [Example 4, 5-Bromo-3-(5-(morpholinomethyl)-pyridin-2-yl)-1H-pyrrolo[3,2-b]pyridin-2-ol] |
| 0.1 to 10 µM | [O-][n+]1cc(CN2CCOCC2)ccc1-c1c(O)[nH]c2ccc(Br)nc12 [Example 4.1, 2-(5-Bromo-2-hydroxy-1H-pyrrolo[3,2-b]pyridin-3-yl)-5-(morpholinomethyl)-pyridine 1-oxide] |
